Results: US10725001B2, “Liquid crystal composition, pH sensing device using the same, and pH sensing device kit using the same” (Tamkang University, priority 2016, dated 2020)

Test: Acid dissociation constants (pKa) of the dopant compounds
Type: physicochemical
Conditions: read-out: acid dissociation constant (pKa)

SMILES	pKa
CCCCCCc1ccc(-c2ccc(C(=O)O)cc2)cc1 [Formula (I-1)]	7.68
CCCCCCCCOc1ccc(-c2ccc(C(=O)O)cc2)cc1 [Formula (I-2)]	7.66
CCCCCCCCCCOc1ccc(-c2ccc(C(=O)O)cc2)cc1 [Formula (I-3)]	9.77
CCCCCCCCCCCCOc1ccc(-c2ccc(C(=O)O)cc2)cc1 [Formula (I-4)]	8.74
